In the assay the target is T1, GPR44 (prostaglandin D2 receptor 2, DP2, CRTh2) (Homo sapiens, UniProt Q9Y5Y4).
T1 construct: gene PTGDR2; human recombinant GPR44 co-expressed with Gα16 in HEK293 cell membranes
T1 sequence (Q9Y5Y4 1-395): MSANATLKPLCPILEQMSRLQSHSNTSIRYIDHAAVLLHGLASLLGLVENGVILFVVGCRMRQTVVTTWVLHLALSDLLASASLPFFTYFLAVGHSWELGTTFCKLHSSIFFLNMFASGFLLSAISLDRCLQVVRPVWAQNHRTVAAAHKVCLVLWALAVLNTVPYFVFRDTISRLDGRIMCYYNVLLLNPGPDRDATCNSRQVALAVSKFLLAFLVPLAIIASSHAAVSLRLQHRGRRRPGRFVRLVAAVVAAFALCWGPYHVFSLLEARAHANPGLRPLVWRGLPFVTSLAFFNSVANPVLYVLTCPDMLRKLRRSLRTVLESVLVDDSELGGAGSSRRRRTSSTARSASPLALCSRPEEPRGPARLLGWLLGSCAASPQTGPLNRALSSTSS
The assay can be described thus: [3H]PGD2 displacement SPA on HEK293 membranes; also displacement of [[…]-3H-phenoxy]-AZ12204657 by filtration (IC50 […]). The class given is binding.

This passage reports IC50 results from publication PMC6306373, “The development of a GPR44 targeting radioligand [^11C]AZ12204657 for in vivo assessment of beta cell mass” (EJNMMI Research, 2018).

SMILES strings stand for the structures.

The term IC50 denotes the point on the concentration scale where inhibition reaches its midpoint. Lower therefore signals higher potency. For `C[C@H](Oc1ccc(Cl)cc1Oc1ccc(S(C)(=O)=O)cc1Cl)C(=O)O` [AZ12204657, (S)-2-(4-chloro-2-[2-chloro-4-(methylsulfonyl)phenoxy]phenoxy) propanoic acid], the IC50 is 2.5 nM.
